Measurements: patent US11654136B2, “Phosphoinositide 3-kinase inhibitor with a zinc binding moiety” (Curis, Inc., priority 2011, dated 2023)

Tests used:
[1] = test system: OPM2 (multiple myeloma tumor cell line) xenograft tumors; assay: OPM2 xenograft tumor model; assay type: in vivo, nude mice; conditions: oral 50 mg/kg twice a day, five days per week
Method: SU-DHL4 (diffuse large B-cell lymphoma cell line), H2122 (human NSCLC cell line), Daudi (non-Hodgkin's lymphoma cell line), and OPM2 (multiple myeloma tumor cell line) cells were implanted into either nude or Scid (severe […] immune-deficient) mice. […]. […] The control groups were treated with vehicle using the same dosing schedule as the corresponding active group.
In another study, the Daudi tumor group was dosed at 50 mg/Kg twice a day for five days per week. […] The SU-DHL4 tumor group was dosed at 100 mg/Kg orally or 50 mg/Kg intravenously.
Tumors were measured during the study period with an electronic caliper, and body weights were measured twice a week. The following formula was used to calculate the tumor volume: […] Percentage of tumor volume change was used to describe compound activity over the treatment period.

[2] = test system: marrow lymphocyte progenitor cells; assay: Effect on hematopoietic cells in bone marrow; assay type: in vivo, mice; conditions: 100 mg/kg orally for five consecutive days
Description: Bone marrow was also removed from the mice sacrificed in Example 12. Bone marrow content were collected from the mice long bones and analyzed with flow cytometer. Various markers for progenitor or mature lymphocytes were used.

[3] = test system: EGFR, HER2, HER3, and MET; assay: Western blot of receptor tyrosine kinases in H1975 and BT-474 cells; assay type: cell-based; conditions: H1975 NSCLC cells and BT-474 breast cancer cells; 16 h
Method: Cell extracts were prepared in the presence of SDS and 2-mercaptoethanol and resolved in polyacrylamide gels. Proteins were transferred to nitrocellulose filter and blotting was done using standard procedures with blocking solutions (Li-Cor Bioscience) containing the indicated primary antibody. Primary antibodies against p-EGFR, EGFR, p-HER2, HER2, p-HER3, HER3, p-MET, MET, p-bRaf, p-cRaf, pMEK, MEK, p-ERK, ERK and tubulin were purchased from Cell Signaling Technology. Secondary antibody conjugated with IRdye 680, 800CW were used and the signal was detected with Li-Cor Odyssey Imager.

T and B lymphocytes = assay: Effect on circulating and lymphoid organ lymphocytes; assay type: in vivo, CD1 wild type mice; conditions: 100 mg/kg orally for five consecutive days
Method: Another 5 mice were treated with vehicle. Blood was collected at various time points (including pre-dosing, during dosing and post-dosing) from the mandibular vein. Blood was analyzed with a flow cytometer for T and B cell quantification.
The animals were sacrificed, and the lymphoid organs were collected. Cells were physically dissociated from the tissues and analyzed with a flow cytometer. Anti-CD3 and -CD19 antibodies were used to stain T and B cells, respectively.

MM1R subcutaneous tumor = assay: MM1R xenograft model; assay type: in vivo, SCID/Beige mice; conditions: oral gavage five times per week
Method: Female SCID/Beige mice at age 4 weeks were housed in ventilated micro-isolator cages (INNOCAGE®IVC, Innovive Inc., San Diego, Calif.) in a controlled climate, fed with sterile high-fat diet (Problab-RMH 2000) ad libitum and provided with sterilized water. All housing and supplies for SCID/Beige mice were sterilized by autoclaving before use. Mice were inspected daily including weekends/holidays by trained animal facility personnel and investigators. All animal procedures were performed under sterile conditions within a biosafety cabinet (for injections) or laminar flow hood (for animal husbandry and non-invasive procedures).
MM1R human MM cells were originally obtained from peripheral blood of a multiple myeloma patient (Goldman-Leikin R E, et al., J Lab Clin Invest. 1980, 13:335-345). Cryopreserved cells were thawed in a 37° C. water bath and cultured in RPMI medium plus 10% Fetal Bovine Serum (FBS) in a tissue culture incubator at 5% CO2. Cells were sent to outside vendors for contaminants and rodent pathogen screening intended to rule out contamination by mycoplasma (by PCR) and/or virus (by MAP test, Mouse Antibody Production). When the cells in culture were enough for implantation, they washed with serum free Hank's balanced salt solution (HBSS). Finally the cells were diluted in HBSS for implantation. […] The implanted mice were monitored for general health and tumor development daily.
Tumors were detectable about two weeks following implantation. Tumor size was measured with a caliper. […]
During each animal study, tumors were measured with calipers, tumor size determined using the above mentioned formula, and tumor size changes in percentage calculated. Mouse body weights were measured with a scale twice per week. […] T/C values were calculated using the following formula: % T/C=100×ΔT/ΔC if ΔT>0. […]
The treatment period was 18 days. Tumor sizes and body weights were measured again on the last day of the study.

[4] = test system: PI3K-AKT-mTOR pathway, RAF-MEK-ERK pathways, RTK protein levels, p53 and p21; assay: Pharmacodynamics, Western blots of Daudi tumor tissue extracts; assay type: in vivo, Scid mice; conditions: single dose 25, 50 and 100 mg/kg; Daudi tumors
Method: Protein was extracted from tumor tissues using a Tissuelyser (Qiagen, Valencia, Calif.) according to the manufacturer's instructions. 30 ug of protein was routinely used for WB analysis as described above. Cell lysates were resolved on NuPAGE Novex 4-12% Bis-Tris gels (Invitrogen) and transferred to nitrocellulose membranes (Bio-Rad Laboratories, Hercules, Calif.). The blots were probed with various primary antibodies overnight at 4° C. GAPDH (glyceraldehyde 3-phosphate dehydrogenase, 1:30,000, Abcam, Cambridge, Mass.) was used as an internal control for each assay. Membranes were then incubated with infrared labeled secondary antibodies (1:10000) conjugated-IR Dye-800 (Rockland Immunochemicals, Inc. Gilbertsville, Pa.) or conjugated-Alexa 680 (Invitrogen). Membranes were imaged with the Odyssey Infrared Imaging System (Li-Cor Biotechnology, Lincoln, Nebr.).

glioblastoma xenografts = conditions: oral dosage; Folkes et al. 2008; cited from earlier work

SMILES: COc1ccc(-c2nc(N3CCOCC3)c3sc(CN(C)c4ncc(C(=O)NO)cn4)cc3n2)cn1 [Compound 1, N-hydroxy-2-(((2-(6-methoxypyridin-3-yl)-4-morpholinothieno[3,2-d]pyrimidin-6-yl)methyl)(methyl)amino)pyrimidine-5-carboxamide]
- Tumor growth [1]: efficacious
- Marrow lymphocyte progenitor cells [2]: induced a compensatory increase in marrow lymphocyte progenitor cells
- Levels of phosphorylated and total EGFR, HER2, HER3, and MET [3]: reduce the levels of phosphorylated and total receptor tyrosine kinases EGFR, HER2, HER3, and MET
- Blood levels of T and B lymphocytes (T and B lymphocytes; blood): significant reversible reduction in the blood levels of both T and B lymphocytes
- T and B lymphocyte levels in spleen and lymph nodes (T and B lymphocytes; spleen and lymph nodes): significant reduction in both T and B lymphocytes
- T/C value (MM1R subcutaneous tumor; day-17, p<0.0001): 21.15%
- Body weight and side effects (MM1R subcutaneous tumor; single agent, 18 days): No body weight loss or other side effects were observed
- Tumor growth (MM1R subcutaneous tumor; single agent, 18 days): inhibited tumor growth
- Pharmacodynamic markers in tumor tissue (Western blots) [4]: inhibits the PI3K-AKT-mTOR pathway, suppresses the RAF-MEK-ERK pathways, downregulates RTK protein levels and up-regulates tumor suppressor p53 and p21 levels

SMILES: CS(=O)(=O)N1CCN(Cc2cc3nc(-c4cccc5[nH]ncc45)nc(N4CCOCC4)c3s2)CC1 [GDC-0941, reference compound]
- Tumor suppression (glioblastoma xenografts): tumor suppression
